Experimental data from patent US20250283110A1, “METHODS AND COMPOSITIONS FOR TRANSDUCTION OF NK CELLS” (ST. JUDE CHILDREN'S RESEARCH HOSPITAL, INC., priority 2021, published 2025).
“Also recorded” adds a separate entry of the source.

How the values were obtained:
[1] = system: NK cells; assay: cells; type: cell-based; settings: Homo sapiens, 72 h; N=3; read-out: EC50 of YFP expression in NK cells
[2] = system: NK cells; assay: NK cell immunophenotyping by flow cytometry with and without inhibitor; type: cell-based, Human; settings: 2 μM for 24 hours, then 48 hours fresh media; N=3; paired two-tailed t-test treated vs untreated
Method: FIGS. 4A-4B show representative data relating to NK cell phenotype with and without treatment with a representative disclosed compound, MRT67307. Briefly, NK cells were treated with and without 2μMMRT67307 for 24 hours. Media was removed and replaced with fresh complete media and cells incubated for another 48 hours. Cells were immunophenotyped via flow cytometry. NK cells were identified as efluor455UV negative, CD3 negative, and CD56 positive.
250,000 NK cells were collected and washed twice in DPBS. Surface HER2-CAR detection was determined via immunolabeling with anti-F (ab′) 2-AF647 (109-606-006, Jackson Labs, Bar Harbor, ME, USA; 1:100), CD19-CAR was detected with PE conjugated recombinant human CD19 protein (3309HP, Creative Biomart, Shirley, NY, USA; 1:100), or YFP were utilized for detection on a BD FACS Lyric machine and analyzed with FlowJo v10 (BD). Immunophenotyping was performed on a BD Symphony flow cytometer. Antibodies used are delineated in below in Table 1.

[3] = system: TBK1/IKKε; settings: Ref. 20; cited from earlier work

Compound	EC50 [1] [µM]	effect on NK cell phenotype [2]	specificity for TBK1/IKKε [3]
O=C(NCCCNc1nc(Nc2cccc(NC(=O)N3CCCC3)c2)ncc1I)c1cccs1 [BX-795]	5	–	–
O=C(NCCCNc1nc(Nc2cccc(CN3CCOCC3)c2)ncc1C1CC1)C1CCC1 [MRT67307, N-[3-[[5-cyclopropyl-2-[3-(morpholin-4-ylmethyl)anilino]pyrimidin-4-yl]amino]propyl]cyclobutanecarboxamide]	1.1	no effect; also recorded: No parameter was significantly different	more specific for TBK1/IKKε than BX-795
